Like-named read-outs stand apart in the source and are kept apart here.
Test system: Hyperlipidemic Hamster
Experiment: In Vivo Assay of Hypolipidemic Agents Using the Hyperlipidemic Hamster
Conditions: 7 days, percent change versus control, negative = lowering; for change in vivo at 50 mg/kg / change in vivo at 10 mg/kg / change in vivo at 30 mg/kg / change in vivo at 1 mg/kg / change in vivo at 3 mg/kg: Mesocricetus auratus, po, 168 h; for change in vivo at 10 mg/kg: 10 mg/kg once daily oral; for change in vivo at 30 mg/kg: 30 mg/kg once daily oral; for change in vivo at 1 mg/kg: 1 mg/kg once daily oral; for change in vivo at 3 mg/kg: 3 mg/kg once daily oral
Description: In Vivo Assay of Hypolipidemic Agents Using the Hyperlipidemic Hamster
Hamsters are separated into groups of six and given a controlled cholesterol diet (Purina Chow #5001 containing 0.5% cholesterol) for seven days. Diet consumption is monitored to determine dietary cholesterol exposure in the face of test compounds. The animals are dosed with the test compound once daily beginning with the initiation of diet. Dosing is by oral gavage of 0.2mL of corn oil alone (control group) or solution (or suspension) of test compound in corn oil. All animals roodbund or in poor physical condition are euthanized. After seven days, the animals are anesthetized by IM injection of ketamine and sacrificed by decapitation. Blood is collected into vacutainer tubes containing EDTA for plasma lipid analysis and the liver excised for tissue lipid analysis. Data is reported as percent reduction of lipid versus control.
Using the test procedures described above, the following in vitro and in vivo data were obtained for the preferred compounds, which are referred to in the following table by the corresponding example numbers. For the in vitro ACAT data, negative percent inhibition denotes apparent stimulation,while positive numbers denote inhibition. For the in vivo results, data is reported as percent change versus control, therefore, negative numbers indicate a positive lipid-lowering effect.

[1] = 50 mg/kg once daily oral, read-out: % Reduction (in vivo) Cholest. Esters
[2] = 50 mg/kg once daily oral, read-out: % Reduction (in vivo) Serum Cholest.
[3] = read-out: % Reduction (in vivo) Cholest. Esters
[4] = read-out: % Reduction (in vivo) Serum Cholest.

Compound | change in vivo at 50 mg/kg [1] | change in vivo at 50 mg/kg [2] | further results
COc1ccc([C@@H]2[C@@H](CCCc3ccccc3)C(=O)N2c2ccc(OC)nc2)cc1 (relative stereo) [Example 7F] | -26% | 0% | –
COc1ccc([C@@H]2[C@@H](CCCc3ccccc3)C(=O)N2c2ccc(C#N)cc2)cc1 (relative stereo) [Example 7D] | -74% | -35% | –
COc1ccc(N2C(=O)[C@@H](CCCc3ccccc3)[C@@H]2c2cc3ccccc3o2)cc1 (relative stereo) [Example 1CA] | 0% | -12% | –
COc1ccc(N2C(=O)[C@H](CCCc3ccccc3)[C@@H]2c2ccc(C(=O)N3CCOCC3)cc2)cc1 (relative stereo) [Example 23] | -40% | -22% | –
COc1ccc([C@@H]2[C@@H](CCCc3ccccc3)C(=O)N2c2cccc([N+](=O)[O-])c2)cc1 (relative stereo) [Example 7B] | -45% | -13% | –
CCOC(=O)c1ccc(N2C(=O)[C@H](CCCc3ccccc3)[C@H]2c2ccc(OC)cc2)cc1 (relative stereo) [Example 7A] | -54% | -22% | –
CON=Cc1ccc([C@H]2[C@H](CCCc3ccccc3)C(=O)N2c2ccc(OC)cc2)cc1 (relative stereo) [Example 27A] | -42% | -15% | –
COc1ccc(N2C(=O)[C@H](CCCc3ccccc3)[C@H]2c2cc[n+]([O-])cc2)cc1 (relative stereo) [Example 20] | 0% | 12% | –
COc1ccc(N2C(=O)[C@H](CCCc3ccccc3)[C@@H]2c2cn(C)c3ccccc23)cc1 (relative stereo) [Example 1BW] | -29% | -9% | –
CCCCCCCCCC[C@H]1C(=O)N(c2ccc(OC)cc2)[C@@H]1c1ccc(OC)cc1 (relative stereo) [Example 7AG] | -15% | 0% | –
COc1ccc([C@@H]2[C@H](N(C)CCc3ccccc3)C(=O)N2c2ccccc2)cc1 (relative stereo) [Example 7K] | -32% | 0% | –
C=CCOc1ccc([C@H]2[C@@H](CCCc3ccccc3)C(=O)N2c2ccc(OC)cc2)cc1 (relative stereo) [Example 1BU] | -95% | -39% | –
COc1ccc([C@@H]2[C@@H](CCCc3ccccc3)C(=O)N2c2ccc(I)cc2)cc1 (relative stereo) [Example 7AA] | -42% | -10% | –
COc1ccc([C@@H]2[C@@H](CCCc3ccccc3)C(=O)N2c2ccc(F)cc2)cc1 (relative stereo) [Example 5D] | -95% | -38% | change in vivo at 10 mg/kg [3]: -77%; change in vivo at 10 mg/kg [4]: -24%; change in vivo at 30 mg/kg [3]: -94%; change in vivo at 30 mg/kg [4]: -41%
COc1ccc([C@H]2[C@@H](CCCc3ccccc3)C(=O)N2c2ccc(C)cc2)cc1 (relative stereo) [Example 1AP] | -95% | -51% | –
COc1ccc([C@@H]2[C@H](N)C(=O)N2c2ccccc2)cc1 (relative stereo) [Example 11] | 0% | -8% | –
COc1ccc(N2C(=O)C(CCCc3ccccc3)C2c2ccc(C3OCCO3)cc2)cc1 (stereo not drawn) [Example 31A] | – | – | % Reduction (in vivo) Cholest. Esters (50 mg/kg once daily oral): 0%; % Reduction (in vivo) Serum Cholest. (50 mg/kg once daily oral): 0%
COc1ccc([C@@H]2[C@@H](CCCc3ccccc3)C(=O)N2c2ccccc2)cc1 [Example 5L] | – | – | change in vivo at 1 mg/kg [3]: -64%; change in vivo at 1 mg/kg [4]: -54%; change in vivo at 3 mg/kg [3]: -84%; change in vivo at 3 mg/kg [4]: -39%; change in vivo at 10 mg/kg [3]: -95%; change in vivo at 10 mg/kg [4]: -50%
COc1ccc(C2C(CCCc3ccccc3)C(=O)N2c2ccc(Oc3ccccc3)cc2)cc1 (stereo not drawn) [Example 5K] | -49% | -28% | –
COc1ccc([C@@H]2[C@H](N(C)C)C(=O)N2c2ccccc2)cc1 (relative stereo) [Example 1CJ] | 0% | 0% | –

Compound | change in vivo at 50 mg/kg [1] | change in vivo at 50 mg/kg [2] | further results
COc1ccc([C@@H]2[C@@H](CCCc3ccccc3)C(=O)N2c2cc(F)cc(F)c2)cc1 (relative stereo) [Example 7E] | -93% | -52% | –
COc1ccc(N2C(=O)[C@H](CCCc3ccccc3)[C@H]2c2ccc(OC(C)C)cc2)cc1 (relative stereo) [Example 7M] | -94% | -38% | –
COc1ccc([C@@H]2[C@H](Oc3ccc4ccccc4c3)C(=O)N2c2ccc(OC)cc2)cc1 (relative stereo) [Example 7AL] | 0% | -13% | –
COc1ccc([C@@H]2[C@H](NCCCC3CCCCC3)C(=O)N2c2ccccc2)cc1 (relative stereo) [Example 14C] | 0% | 0% | –
COc1ccc([C@@H]2[C@H](NC(=O)COc3ccccc3)C(=O)N2c2ccccc2)cc1 (relative stereo) [Example 12B] | -26% | 0% | –
COc1ccc(OCC[C@H]2C(=O)N(c3ccccc3)[C@@H]2c2ccc(OC)cc2)cc1 (relative stereo) [Example 7AP] | -82% | -24% | –
COc1ccc([C@@H]2[C@H](NS(=O)(=O)c3ccc(C)cc3)C(=O)N2c2ccccc2)cc1 (relative stereo) [Example 13] | 0% | -18% | –
COc1ccc(N2C(=O)[C@@H](CCCc3ccccc3)[C@@H]2c2ccc(C(=O)O)cc2)cc1 (relative stereo) [Example 22] | -33% | -17% | –
COc1ccc(N2C(=O)[C@H](CCCc3ccccc3)[C@H]2c2ccc(OCc3ccccc3)cc2)cc1 (relative stereo) [Example 5T] | -48% | -15% | –
COc1ccc([C@@H]2[C@@H](CCCC3CCCCC3)C(=O)N2c2ccc(OC)cc2)cc1 (relative stereo) [Example 7AK] | -28% | 12% | –
COc1ccc([C@@H]2[C@@H](Cc3ccc4ccccc4c3)C(=O)N2c2ccccc2)cc1 (relative stereo) [Example 7AO] | -90% | -41% | –
COc1ccc([C@@H]2[C@@H](CCCc3ccccc3)C(=O)N2c2ccccc2)cn1 (relative stereo) [Example 7O] | -20% | -14% | –
COc1ccc([C@H]2[C@@H](CCOc3ccc(F)cc3)C(=O)N2c2ccccc2)cc1 (relative stereo) [Example 1CH] | -95% | -49% | change in vivo at 3 mg/kg [3]: -80%; change in vivo at 3 mg/kg [4]: -24%; change in vivo at 10 mg/kg [3]: -90%; change in vivo at 10 mg/kg [4]: -41%
COc1ccc([C@@H]2[C@@H](CCOc3ccc(F)cc3)C(=O)N2c2ccc(OC)cc2)cc1 (relative stereo) [Example 5AA] | -93% | -53% | –
COc1ccc([C@@H]2[C@@H](CCCc3ccccc3)C(=O)N2c2ccc(S(C)(=O)=O)cc2)cc1 (relative stereo) [Example 17B] | -39% | 0% | –
COc1ccc(N2C(=O)[C@H](CCCc3ccccc3)[C@H]2c2cc(I)c(O)c(I)c2)cc1 (relative stereo) [Example 32A] | 0% | 0% | –
CCOC(=O)c1ccc([C@H]2[C@@H](CCCc3ccccc3)C(=O)N2c2ccc(OC)cc2)cc1 (relative stereo) [Example 24] | 0% | -17% | –
COc1ccc(N2C(=O)[C@H](CCCc3ccccc3)[C@@H]2c2ccc(OC(C)C)cc2)cc1 (relative stereo) [Example 1AY] | -78% | -28% | –
COc1ccc([C@@H]2[C@@H](CCCc3ccc(N)cc3)C(=O)N2c2ccc(OC)cc2)cc1 (relative stereo) [Example 8E] | -32% | 0% | –

Reference: patent US5688787A, “Substituted β-lactam compounds useful as hypochlesterolemic agents and processes for the preparation thereof” (priority 1996, dated 1997)
